This is an account of results in a melting point compilation (Tetko et al.; mined from patent text by program, amines drawn as free bases though some values may be those of a salt).

Broadly, the melting point is the temperature of the solid-liquid transition. With `CCOc1cccc(C(c2ncccc2OC)n2nc(C(=O)O)c3c2-c2ccc(OCc4cncnc4)cc2CC3)c1` (stereo not drawn), the melting point was in the range of 222 to 225 °C.
`O=c1nc(N2CCOCC2)ccn1C1OC(CO)C(O)C1O` (stereo not drawn) came in with a melting point of 106 to 108 °C.
The result for `COc1ccc2c(c1OC)CCC2C(=O)O` (stereo not drawn) reads 128 to 130 °C.
`CCOC(=O)c1ccc(NC(=O)CC(CNS(=O)(=O)c2ccc(C)cc2)c2ccccc2)cc1` (stereo not drawn) returned a melting point of 135 to 137 °C.
On to `CCOC(=O)C(=O)NC(=O)N1CC1C#N` (stereo not drawn), for which the melting point lay in the range of 104 to 106 °C.
Next, `CC(C)CC(CS)C(=O)N[C@@H](C)C(=O)N[C@@H](CCCNC(=N)N)C(=O)O` (stereo partly drawn): 140 to 150 °C.
Compound `CC(C)c1cc(-c2ccccc2)nc(-c2ccc(F)cc2)c1C=C(Br)Br` gave a melting point of 124 to 126 °C.
In turn, `Nc1nc(Nc2cccc(C(F)(F)F)c2)nc(OCC(F)(F)F)n1` displayed a melting point of 133 to 135 °C.
Next, `CNC(=S)NS(=O)(=O)c1cc2c(cc1OC)OCC(NC(=O)c1cc(F)ccc1OC)C2` (stereo not drawn): 221 to 222 °C; `Oc1ccc([C@@H]2C[C@H]2c2ccc(O)cc2)cc1` (relative stereo): 190 to 191 °C.
For `Cc1cc(C)c2c(c1)C=C(/C=C/C=O)CO2`, the melting point lay in the range of 76 to 78 °C.
Regarding `CC1(c2onc(-c3ccc(O)cc3)c2-c2ccccc2)CC1`, the melting point was in the range of 212 to 214 °C.
As for `CC(=O)c1c(Cl)c(Cl)c([N+](=O)[O-])c2c1OCCO2`, the melting point fell in the range of 181 to 182 °C.
With `O=C(NCCc1ccccc1)c1ccccc1I`, the melting point was in the range of 125 to 126 °C.
Next, `O=C1NCCN(Cc2cc(=O)c(OCc3ccccc3)cn2Cc2ccccc2)C1=O`: 260 to 265 °C; `CCCCCCCCCc1ccccc1O`: 80 °C; `CC(C)Oc1ccc(CCCOc2cc(CCC(=O)O)n(C)n2)c(OCc2ccc(C(F)(F)F)cc2)c1`: 88 to 89 °C.
`N#Cc1cnc2cc(-c3csc(CN4CCOCC4)c3)ccc2c1Nc1ccc(Cl)cc1Cl`: the melting point is 203 to 205 °C.
In turn, `COC(=O)CCc1ccc(OCc2sc3ccccc3c2Cl)cc1` showed a melting point of 97 to 98 °C.
The compound `c1ccc2cc(Cc3nc4cc(CCC5OCCO5)ccc4o3)ccc2c1` had a melting point of 85 to 86 °C.
Next, `CN(C)C=C1Cc2cc(Cl)ccc2C1=O`: 148 to 150 °C.
The compound `CC(C)n1nc(-c2cnc(N)nc2-c2ccccc2F)ccc1=O` returned a melting point of 239 to 240 °C.
As to `CONC(=O)c1cccc(-c2nc3ccccc3c(=O)o2)c1`, the melting point lay in the range of 223 to 226 °C.
`CC1(C)C(=O)Nc2ccc(C(=O)O)cc21` yielded a melting point above 250 °C.
For the compound `CCCNS(=O)(=O)Nc1ncccc1C(=O)OC`, the melting point was in the range of 208 to 210 °C.
`COC(=O)/C(=N\O)c1csc(NC(c2ccccc2)(c2ccccc2)c2ccccc2)n1` returned a melting point of 204 to 205 °C.
Compound `CCCc1nc2c(N)nc3ccccc3c2n1CC1(O)CCC1` returned a melting point of 228 to 229 °C.
On to `NC(=O)c1ncn2c1[C@@H]1CCN1C(=O)c1sccc1-2`, for which the melting point was above 250 °C.
Consider `CC(=O)Nc1ccccc1CS(=O)c1nccn1Cc1ccccn1` (stereo not drawn), for which the melting point lay in the range of 146 to 148 °C.
For the compound `COc1ccc(CCNC(=O)CN(C(=O)OCc2ccccc2)c2ccc(C)cc2)cc1OC`, the melting point lay within 81 to 85 °C.
Regarding `Cc1ccc(S(=O)(=O)Nc2cccc3cc(C(N)=O)[nH]c23)cc1`, the melting point fell in the range of 312 to 313 °C.
Compound `CNC(=O)CCc1ccc2cc(O[C@@H](C)[C@H](O)CCc3cccnc3)ccc2c1` yielded a melting point of 68 to 70 °C.
As to `CCc1cccc2c3c([nH]c12)[C@@]1(CC(=O)O)CC[C@H]1CC3` (relative stereo), the melting point lay within 170 to 171 °C.
The compound `CSc1nc(C)cc(-c2ccc(C(F)(F)F)cc2)n1` gave a melting point of 77 to 80 °C.
The compound `O=C(O)C(Cl)(Cl)CCCCCCCCCCCCS(=O)c1ccccc1` (stereo not drawn) yielded a melting point of 68 °C.
`CCOC(=O)c1ccc(C2=NOC(c3cc(Cl)cc(Cl)c3)(C(F)(F)F)C2)cc1OC` (stereo not drawn) had a melting point of 142 to 144 °C.
Compound `CCCc1nnc(Cc2cn(-c3ccccc3)nc2OCc2ccc(OCc3nc(-c4ccco4)oc3C)c(OC)c2)o1` came in with a melting point of 102 to 103 °C.
The result for `CC(COS(C)(=O)=O)N1c2ccc(Cl)cc2Sc2ccc(C#N)cc21` (racemic) reads 132 °C; that for `CC(=O)Nc1ccccc1CSc1nccn1-c1ccncc1`, 153 to 155 °C; that for `O=C(O)c1cn(C2CC2)c2cc(N3CCNC(COc4ccccc4)C3)c(F)cc2c1=O` (stereo not drawn), 112 to 115 °C.
The result for `CCOC(=Cc1ccc(C(=O)OC)cc1)c1ccc2c(c1)C(C)(C)CCC2(C)C` reads 204 to 206 °C; that for `CCCC(C1CCCCC1)n1c(C(=O)OC)cnc1S` (stereo not drawn), 181 °C; that for `COc1ccc2c(c1)C(C(=O)N(Cc1ccc(S(C)(=O)=O)cc1)c1ccc(C(C)C)cc1)CCC2` (stereo not drawn), 131 to 132 °C.
Regarding `CCCn1cncc1-c1ccc(O)cc1`, the melting point came to 160 °C.
As to `CC1CC(=O)c2cccc(C(N)=S)c21` (stereo not drawn), the melting point lay in the range of 198 to 200 °C.
The compound `CCOc1c(NCc2c(C)cccc2C)c(=O)c1=O` returned a melting point of 281 to 283 °C.
Take `O=C1N(Cc2ccc(Cl)c(Cl)c2)C(=NCC(F)(F)F)SCN1c1ccccc1`: the melting point lay in the range of 99.1 to 99.6 °C.
For the compound `Cc1nc2cccc(OCC(C)(C)NC(=O)C(C)C)c2c(N)c1C(=O)O`, the melting point lay within 184 to 186 °C.
`CCn1c(CCO)nc(N2CCc3ccccc3CC2)c(C#N)c1=O` came in with a melting point of 114 to 115 °C.
In turn, `O=c1c2c(cnn1CC=Cc1ccccc1)C(Cc1ccccc1)NCCS2` (stereo not drawn) came in with a melting point of 101 to 102 °C.
`Cc1ccnc2c(N)cc(F)cc12` gave a melting point of 100 to 101 °C.
Next, `CC(=O)CC(=O)OC(C)N=C(O)c1cc(C(=N)O)c(C(=O)O)cc1C(=O)O` (stereo not drawn): 161 to 163 °C.
Regarding `CCCc1c(OCC(O)COc2cccc(N)c2)ccc(C(C)=O)c1O` (stereo not drawn), the melting point fell in the range of 85 to 89 °C.
`Cc1cc(CO)ccc1NC(=O)CN(C(=O)OC(C)(C)C)c1ccc(F)c(F)c1` returned a melting point of 134 to 136 °C.
Turning to `CC(C)[Si](Oc1c(F)cc([C@@H](O)[C@@H](C)N2CCC(O)(c3ccc(Cl)cc3)CC2)cc1F)(C(C)C)C(C)C` (relative stereo), the melting point turned out to be 192 °C.
Next, `CC1CC(=O)c2c(Cl)c(F)cc3c(=O)c(C(=O)O)cn1c23` (single isomer, unassigned; (-)): 294 to 296 °C; `COc1ccc(-c2noc(C)n2)c(OC)c1C`: 105 to 107 °C; `O=C(O)c1cc(F)c(N2CCCC2)nc1NC1CC1`: 64 to 66 °C.
Turning to `Cc1cccc(-c2nc3c(C)cccn3c2-c2ccnc(-c3ccc(OCC(N)=O)cc3)c2)n1`, the melting point is 183 °C.
`CCCCCCCCCCCCOc1ccc(-c2ncc(-c3ccc(O)c(F)c3F)cn2)cn1` gave a melting point of 111 to 118 °C.
On to `CCCCCCOC1CC(C)(C)N(c2nc(Cl)nc(Cl)n2)C(C)(C)C1`, for which the melting point fell in the range of 49 to 51 °C.
`N#CSc1ccc(SCc2ncon2)cc1` yielded a melting point of 78 °C.
The result for `CS(=O)c1cccc(CNC(=O)c2nc3scc(COCc4ccc(C(=O)O)cc4)c3c(=O)[nH]2)c1` (stereo not drawn) reads 227 to 228 °C; that for `COC(=O)C1=C(C)NC(C)=C(C(=O)O)C1c1ccccc1` (single isomer, unassigned; (-)), 158 to 159 °C.
As to `CCOCc1nc2c(N)nc3ccccc3c2n1CCOCCNC(=O)NC1CCCCC1`, the melting point fell in the range of 161 to 164 °C.
`CC(=O)NC1c2cc3nonc3cc2OC(C)(C)C1OC(C)=O` (stereo not drawn) returned a melting point of 236 to 238 °C.
In the case of `CN(C(=O)CN1C(=O)c2ccccc2C1=O)c1ccc(Cl)c(CO)c1Cl`, the melting point was 236 to 241 °C.
Compound `Cc1cc(C(=O)c2ccc(Cl)cc2)ccc1N` registered a melting point of 113 to 116 °C.
Regarding `Cc1c(O)cccc1C(=O)N[C@@H](Cc1ccccc1)[C@H](O)C(=O)N1CSC(C)(C)[C@H]1C(=O)NCc1cccc(OC(F)(F)F)c1`, the melting point fell in the range of 102 to 105 °C.
The result for `NCCSc1cc(N)c([N+](=O)[O-])cc1N` reads 149 °C.
Regarding `COc1ccc([C@]2(C)Cc3cc(OC)ccc3[C@@H]2CCC2OCCCO2)cc1` (racemic), the melting point fell in the range of 86 to 88 °C.
Compound `Cc1ccc(C(=O)C=Cc2cc(O)c(O)c([N+](=O)[O-])c2)cc1` yielded a melting point of 184 to 186 °C.
Compound `Cc1cc(O)c2cc(C)c(-c3ccc(Cl)cc3Cl)n2n1` had a melting point of 234 to 237 °C.
The result for `CN1CCC(OC(=O)C(C)(c2ccc(O)cc2)C2CCCC2)CC1` (stereo not drawn) reads 128 to 130 °C.
As for `Cn1nnnc1SCC(=O)C12CC3CC(CC(C3)C1)C2`, the melting point lay within 112 to 113 °C.
In turn, `Cc1ccccc1COc1cccnc1NC(=S)Nc1ccccc1` showed a melting point of 150 to 151 °C.
For `CCc1ccc(OC(=O)c2ccccc2)c(C(=O)c2ccc(Cl)cc2)c1`, the melting point is 79 to 81 °C.
On to `CCOCc1cccc2[nH]c3cnc(C(=O)OCC)c(COC)c3c12`, for which the melting point lay within 94 to 97 °C.
As for `N#CN=C(Nc1cccc(-c2cccc(S(=O)(=O)NC(CC(=O)O)c3ccccc3)c2)c1)NC1CC1` (stereo not drawn), the melting point amounted to 120 °C.
For `COc1cc(OC)c(-c2cn[nH]c2)cc1C=CC(=O)c1ccc(C(=O)O)cc1`, the melting point was above 250 °C.
The compound `CNS(=O)(=O)c1ccc(C(=O)C=Cc2cc(-c3cc4ccccc4n3C)c(OC)cc2OC)cc1` came in with a melting point of 129 to 131 °C.
With `Cc1ccccc1-c1ccc(C(=O)O)cc1C`, the melting point lay in the range of 140 to 143 °C.
In the case of `OCCc1ccc(N2CCOCC2)cc1`, the melting point worked out at 57 °C.
Next, `Cc1nc(Nc2ccccc2)sc1-c1nc2ccccc2c(=O)n1-c1ccccc1`: 260 to 262 °C; `CC(O)(c1ccc(F)cc1)C1CCNCC1` (stereo not drawn): 184 to 186 °C; `COc1cc2c(cc1F)CCN(Nc1ccncc1)C2`: 216 to 218 °C.
Next, `CC1=NN=C(c2ccc(NC(=O)CN)cc2)c2cc3c(cc2C1)OCO3`: 223 to 225 °C; `ON=Cc1c(O)ccc2c1OCO2`: 161 to 162 °C.
